Results reported in doi:10.1101/2023.12.19.572336, “Structure of an insect gustatory receptor” (bioRxiv, 2023).

Target: T1, Bombyx mori Gr9 (BmGr9) (Bombyx mori, UniProt B3GTD7)
T1 construct: N-terminally TwinStrep-tagged BmGr9, homotetramer; residues 232–269 and the N and C termini (15 and 5 residues) disordered
T1 sequence (B3GTD7 1-449): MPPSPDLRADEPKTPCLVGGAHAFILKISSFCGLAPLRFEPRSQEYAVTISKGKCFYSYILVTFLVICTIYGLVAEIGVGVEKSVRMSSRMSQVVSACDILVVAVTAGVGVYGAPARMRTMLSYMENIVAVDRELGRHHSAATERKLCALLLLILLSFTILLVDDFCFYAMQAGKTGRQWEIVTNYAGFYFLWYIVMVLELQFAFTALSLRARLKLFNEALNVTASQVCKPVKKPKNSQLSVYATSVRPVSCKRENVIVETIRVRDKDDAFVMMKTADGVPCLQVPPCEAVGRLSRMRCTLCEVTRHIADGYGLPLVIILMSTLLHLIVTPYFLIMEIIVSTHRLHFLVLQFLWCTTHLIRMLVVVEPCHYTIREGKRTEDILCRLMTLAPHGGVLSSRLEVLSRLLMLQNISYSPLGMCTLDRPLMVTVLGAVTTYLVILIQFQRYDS
Experiment: cryo-EM of protein purified with […] D-fructose ([…] Å); EC50 by two-electrode voltage clamp in Xenopus oocytes
Type: cell-based

EC50: 22 mM
Compound: OCC1(O)OC[C@@H](O)[C@@H](O)[C@@H]1O (stereo partly drawn) [D-fructose]
